Laboratory results: patent US10913922B2, “N-acylated methionine derivatives as food flavoring compounds” (Givaudan S.A., priority 2012, dated 2021)
Entries after “also recorded” stand apart in the source; their conditions may differ.

Tests used:
[1] = Expert taster evaluation in a mango juice drink; conditions: 1 ppm in mango juice drink base (8% sucrose, 0.1% citric acid, 1% clear mango juice, mango flavour 0.05%); base alone: fruity mango
Procedure: (§1) Samples were evaluated by expert tasters. Tasters were asked to describe the samples focusing on authentic taste, mouthfeel, fullness, salty-ness, salivation, umami, sweetness, juiciness, richness, long lastingness and fattiness
Comparison in a Mango Juice Drink
Base is 8% sucrose, 0.1% citric acid, 1% clear mango juice, proprietary mango flavour @ 0.05%

[2] = Expert taster evaluation in beef bouillon; conditions: base alone: salty, umami, powdery
Procedure: as §1
Comparison in Beef Bouillon
Base is Maggi beef bouillon 1 tablet in 500 ml of hot water

[3] = Expert taster evaluation in orange beverage; conditions: 1 ppm in orange beverage (water, 7% sugar, 0.1% citric acid, orange flavour 0.06%); base alone: orange, fruity, slightly candy
Procedure: as §1
Base is water, 7% sugar, 0.1% citric acid, proprietary orange flavour @ 0.06%

[4] = Expert taster evaluation in lemon beverage; conditions: 1 ppm in lemon beverage (water, 7% sucrose, 0.15% citric acid, lemon flavor), base alone: floral, citral
Procedure: as §1
Basis water, 7% sucrose, 0.15% citric acid, proprietary lemon flavor

[5] = 1 ppm in Maggi beef bouillon (1 tablet in 500 ml hot water)

Compound | taste description by expert tasters [1] | taste description by expert tasters [2, 5] | taste description by expert tasters [3] | taste description by expert tasters [4] | taste description by expert tasters ([2]; 25 ppb in Maggi beef bouillon) | taste description by expert tasters ([2]; 50 ppb in Maggi beef bouillon)
CCCCCCCC(=O)N[C@@H](CCSC)C(=O)O [C8:0-met] | green fresh, no additional body | more salty, no additional fullness |  |  |  | 
CCCCCC/C=C\CCCC(=O)NC(CCSC)C(=O)O (centres unmarked) [C12:1-met] | ripe full, more juicy, slightly metallic | more salty | nice orange, fresh | fresh, slightly more citral |  | 
CCCCCCCCCCCCCCCC(=O)NC(CCSC)C(=O)O (centres unmarked) [C16:0-met] | fatty, full body, juicy, metallic | salty, full, nice salivating, lingering | slightly metallic, fresh |  |  | 
CCCCCCCC/C=C\CCCCCCCC(=O)NC(CCSC)C(=O)O (centres unmarked) [C18:1-met] | sweeter, juicy, salivating | very strong salty impact and aftertaste; also recorded: very strong salty impact and aftertaste, more fatty, mouthfeel, lingering full bodied | very juicy fresh, authentic, juicy | fresh, less floral, very juicy, very authentic | more peppery, more salty | more salty, more bouillon taste
CCCCC/C=C\C/C=C\CCCCCCCC(=O)NC(CCSC)C(=O)O (centres unmarked) [C18:2-met] | fresh nice juicy | salivating salty, umami |  |  |  | 
